# From patent US20040009964A1, “Compositions and methods for the treatment of matrix metalloproteinase-related diseases” (BioInterface Technologies, Inc., priority 2002, published 2004)
# Entries after “also recorded” stand apart in the source; their conditions may differ.
# Legend:
# [1] = target: human neutrophil collagenase (Homo sapiens, UniProt P22894); settings: cited from earlier work; for Effect of metal ion binding on collagenase activity: binding to human neutrophil collagenase
# [2] = system: P. aeruginosa (ATCC 27853); settings: overnight at 37° C., dilutions 1.95 to 250 μg/ml
# Description: (§1) In vitro antimicrobial activity was calculated by determining the minimum inhibitory concentration (MIC) for a silver thiosulfate ion complex composition; for example, the silver thiosulfate ion complex produced according to Example 3. The antimicrobial activity of this embodiment was determined by using serial two-fold dilutions ranging from 1.95 to 250 μg/ml using tryptic soy broth (Difco) as a diluent. Each dilution was inoculated with a 0.005 ml aliquot from a 24-hour microbial growth culture having a concentration of approximately 10^5 to 10^7 CFU/ml. The dilutions were incubated overnight at 37° C. The MIC was determined by identifying the lowest dilution (expressed as μg/ml) of the silver thiosulfate ion complex that was without evidence of growth (i.e. was not cloudy).
# E. coli (ATCC 25922) = settings: overnight at 37° C., dilutions 1.95 to 250 μg/ml
# Description: as §1
# S. aureus (ATCC 25923) = settings: overnight at 37° C., dilutions 1.95 to 250 μg/ml
# Description: as §1
# [3] = system: S. epidermidis (ATCC 12228); settings: overnight at 37° C., dilutions 1.95 to 250 μg/ml
# Description: as §1
# matrix metalloproteinase = settings: synoviocyte MMP activity; cited from earlier work
# Chain of human neutrophil collagenase (P22894 101-467): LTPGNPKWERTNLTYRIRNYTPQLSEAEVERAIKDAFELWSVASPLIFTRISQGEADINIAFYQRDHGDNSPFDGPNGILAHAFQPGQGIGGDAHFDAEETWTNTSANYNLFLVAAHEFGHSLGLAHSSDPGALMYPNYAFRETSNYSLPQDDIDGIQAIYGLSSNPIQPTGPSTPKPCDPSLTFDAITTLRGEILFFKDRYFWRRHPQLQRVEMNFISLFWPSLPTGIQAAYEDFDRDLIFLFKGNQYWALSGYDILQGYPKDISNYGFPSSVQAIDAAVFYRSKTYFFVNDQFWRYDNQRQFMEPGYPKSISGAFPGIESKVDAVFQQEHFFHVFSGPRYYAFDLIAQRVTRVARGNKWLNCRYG
compound,measurement,setting,value
[Ag+] [Ag(I)],Direct inhibition of matrix metalloproteinase,"[1]; Ag(I) concentrations up to 10 μM, higher concentrations precipitated in the culture media",did not directly inhibit
[Cd+2] [Cd(II)],Effect of metal ion binding on collagenase activity,[1],noncompetitive inhibition; also recorded: collagenase inhibition
[Au+] [Au(I)],Effect of metal ion binding on collagenase activity,[1],noncompetitive inhibition; also recorded: collagenase inhibition
Na4[Ag2(S2O3)3]H2O [Silver Thiosulfate Ion Complexes],MIC,[2],<1.95 µg/mL
same,MIC,E. coli (ATCC 25922),<1.95 µg/mL
same,MIC,S. aureus (ATCC 25923),<1.95 µg/mL
same,MIC,[3],<1.95 µg/mL
[Hg+2] [Hg(II)],Effect of metal ion binding on collagenase activity,[1],collagenase inhibition
[Cu+2] [Cu(II)],Effect of metal ion binding on collagenase activity,[1],noncompetitive inhibition; also recorded: collagenase inhibition
[Zn+2] [Zn(II)],Effect of metal ion binding on collagenase activity,[1],retention of activity
O=[N+]([O-])[O-].O=[N+]([O-])[O-].O=[N+]([O-])[O-].[Ga+3] [gallium nitrate],Inhibition of matrix metalloproteinase activity,matrix metalloproteinase,can inhibit matrix metalloproteinase activity
